This assay deals with Candida-Zellen. Kind of assay: Antimycotic in-vivo efficacy (oral) in mouse candidosis. As to conditions: mice infected i.v. with 1 - 2 x 10^6 Candida cells; oral treatment with 50 - 100 mg/kg each, 1 h before and 7 h after infection; survivors on day 6 p.i. Also noted: species or system Mäuse vom Typ SPF-CF1; key: +++++: sehr gute Wirkung = 90 % Ueberlebende am 6.Tag p.i.; ++++: gute Wirkung = 80 % Ueberlebende am 6 Tag p.i.; +++: Wirkung = 60 % Ueberlebende am 6. Tag p.i.; ++: schwache Wirkung = 40 % Ueberlebende am 6.Tag p.i.; +: Spur Wirkung =; k.W.: keine Wirkung. On the procedure: Antimykotische in-vivo-Wirksamkeit (oral) bei Mäusecandidose Versuchsbeschreibun:
Mäuse vom Typ SPF-CF1 wurden intravenös mit 1 - 2 x 10^6 logarithmisch wachsenden Candida-Zellen, die in physiologischer Kochsalzlösung suspendiert werden, infiziert. Eine Stunde vor und sieben Stunden nach der Infektion werden die Tiere mit jeweils 50 - 100 mg/kg Körpergewicht der Präparate oral behandelt.
Unbehandelte Tiere starben 3 bis 6 Tage post infektionem. Die Ueberlebensrate am 6.Tag post infektionem betrug bei unbehandelten Kontrolltieren etwa 5 %. In diesem Test zeigten z.B. die erfindungsgemäßen Verbindungen eine bessere Wirkung als die aus dem Stand der Technik bekannten Verbindungen 1 und 3.
+++++ = sehr gute Wirkung = 90 % Ueberlebende am 6.Tag p.i. ++++ = gute Wirkung = 80 % Ueberlebende am 6 Tag p.i. +++ = Wirkung = 60 % Ueberlebende am 6. Tag p.i. ++ = schwache Wirkung = 40 % Ueberlebende am 6.Tag p.i. + = Spur Wirkung = k.W. = keine Wirkung
Take `OC(Cc1ccc(Cl)cc1Cl)(Cn1ccnc1)c1ccc(-c2ccccc2)cc1` (centres unmarked) [(A), 2-(4-Biphenylyl)-1-(2,4-dichlorphenyl)-3-(imidazoL-1-yL)-2-propanoL]: the Wirkung entry was “k.W”. Under `CC(C)(C)C(O)(COc1ccc(Cl)cc1)Cn1ccnc1` (centres unmarked) [(B), 2-(4-Chlorphenoxymethyl)-3,3-dimethyl-1-(imidazol-1-yl)-butan-2-ol] stands “k.W”; under `Cc1ccccc1OCC(O)(Cn1ccnc1)C(C)(C)C` (centres unmarked) [(C)], “k.W”; under `OC(C#Cc1ccccc1)(Cn1cncn1)Cn1cncn1` [Beispiel 1, 3-Hydroxy-1-phenyL-4-(1,2,4-triazol-1-yl)-3-(1,2,4-triazol-1-yl-methyl)-1-butin], “+++ (Wirkung = 60 % Ueberlebende am 6. Tag p.i.)”.

Turning to `OC(C#Cc1ccc(Cl)cc1)(Cn1cncn1)Cn1cncn1` [Beispiel 3], the Wirkung entry was “+++++ (sehr gute Wirkung = 90 % Ueberlebende am 6.Tag p.i.)”.

The values above are taken from EP0104300A1, “Diazolyl alkanoles, process for their preparation and their use as antimycotic agents” (BAYER AG, priority 1982, dated 1984).
